ChEMBL document CHEMBL5257097, “An Isomer of Galidesivir That Potently Inhibits Influenza Viruses and Members of the Bunyavirales Order” (ACS Med Chem Lett, 2023)

Tests used:
Influenza A virus [1] = test: Antiviral activity against Influenza A virus H3N2 infected in dog MDCK cells assessed as inhibition of viral replication measured after 15 to 30 mins by visual analysis; type: functional, organism-based
Influenza A virus [2] = test: Antiviral activity against Influenza A virus H3N2 infected in dog MDCK cells assessed as inhibition of viral replication measured after 15 to 30 mins by neutral red dye based analysis; type: functional, organism-based
[3] = Cytotoxicity against dog MDCK cells infected with Influenza A virus H1N1 assessed as reduction in cell viability by neutral red dye based analysis; type: toxicity, Canis lupus familiaris
[4] = (§1) Selectivity index, ratio of CC50 for cytotoxicity against dog MDCK cells infected with Influenza A virus H1N1 assessed as reduction in cell viability by neutral red dye based analysis to EC50 for antiviral activity against Influenza A virus H1N1 infected in dog MDCK cells assessed as inhibition of viral replication by neutral red dye based analysis; type: toxicity; settings: read-out: Ratio CC50/EC50
[5] = as §1, with “H3N2” for “H1N1”, “visual” for “neutral red dye based”; type: toxicity, cell-based; settings: read-out: Ratio CC50/EC50
[6] = as §1, with “H3N2” for “H1N1”; type: toxicity; settings: read-out: Ratio CC50/EC50
Influenza A virus [7] = test: Antiviral activity against Influenza A virus H3N2 infected in dog MDCK cells assessed as reduction in virus yield measured after 3 days by visual analysis; type: functional; settings: 72 h, time 3 day
Influenza B virus [8] = test: Antiviral activity against Influenza B virus infected in dog MDCK cells assessed as reduction in virus yield measured after 3 days by visual analysis; type: functional; settings: 72 h, time 3 day
Junin virus [9] = test: Antiviral activity against Junin virus infected in African green monkey Vero E6 cells assessed as inhibition of viral replication by visual analysis; type: functional, organism-based; settings: Mammarenavirus juninense, Vero C1008
Junin virus [10] = test: Antiviral activity against Junin virus infected in African green monkey Vero E6 cells assessed as inhibition of viral replication by neutral red dye based analysis; type: functional, organism-based; settings: Mammarenavirus juninense, Vero C1008
La Crosse virus = test: Antiviral activity against La Crosse virus infected in African green monkey Vero E6 cells assessed as inhibition of viral replication by neutral red dye based analysis; type: functional, organism-based; settings: Vero C1008
Oropouche virus = test: Antiviral activity against Oro-pouche virus infected in African green monkey Vero E6 cells assessed as inhibition of viral replication by neutral red dye based analysis; type: functional, organism-based; settings: Vero C1008
Punta Toro virus [11] = test: Antiviral activity against Punta Toro virus infected in African green monkey Vero 76 cells assessed as inhibition of viral replication by neutral red dye based analysis; type: functional, organism-based
Punta Toro virus [12] = test: Antiviral activity against Punta Toro virus infected in African green monkey Vero 76 cells assessed as inhibition of viral replication by visual analysis; type: functional, organism-based
Tacaribe virus = test: Antiviral activity against Tacaribe virus infected in African green monkey Vero cells assessed as inhibition of viral replication by visual analysis; type: functional, organism-based; settings: Mammarenavirus tacaribeense
[13] = system: Orthohantavirus maporalense; test: Antiviral activity against Maporal virus infected in African green monkey Vero E6 cells assessed as reduction in viral yield measured for 3 days; type: functional; settings: Vero C1008, 72 h, time 3 day
[14] = Cytotoxicity against African green monkey Vero E6 cells infected with Heartland virus assessed as reduction in cell viability; type: toxicity, cell-based, Vero C1008; settings: chlorocebus sabaeus
[15] = Cytotoxicity against African green monkey Vero 76 cells infected with La Crosse virus assessed as reduction in cell viability by neutral red dye based analysis; type: toxicity; settings: chlorocebus sabaeus
[16] = Cytotoxicity against African green monkey Vero E6 cells infected with Maporal virus assessed as reduction in cell viability; type: toxicity, cell-based, Vero C1008; settings: chlorocebus sabaeus
[17] = Cytotoxicity against African green monkey Vero E6 cells infected with Oropouche virus assessed as reduction in cell viability by neutral red dye based analysis; type: toxicity, Vero C1008; settings: chlorocebus sabaeus
[18] = Cytotoxicity against African green monkey Vero cells infected with Pichinde virus assessed as reduction in cell viability by visual analysis; type: toxicity, cell-based; settings: chlorocebus sabaeus
[19] = Cytotoxicity against African green monkey Vero cells infected with Pichinde virus assessed as reduction in cell viability by neutral red dye based analysis; type: toxicity; settings: chlorocebus sabaeus
[20] = Cytotoxicity against African green monkey Vero 76 cells infected with Punta Toro virus assessed as reduction in cell viability by visual analysis; type: toxicity, cell-based; settings: chlorocebus sabaeus
[21] = Cytotoxicity against African green monkey Vero cells infected with Tacaribe virus assessed as reduction in cell viability by visual analysis; type: toxicity, cell-based; settings: chlorocebus sabaeus
[22] = (§2) Selectivity index, ratio of CC50 for cytotoxicity against African green monkey Vero 76 cells infected with Rift Valley fever virus assessed as reduction in cell viability to EC90 for antiviral activity against Rift Valley fever virus infected in African green monkey Vero 76 cells assessed as reduction in viral yield; type: toxicity, cell-based
[23] = (§3) Selectivity index, ratio of CC50 for cytotoxicity against African green monkey Vero cells infected with JUNV assessed as reduction in cell viability by visual analysis to EC50 for antiviral activity against JUNV infected in African green monkey Vero cells assessed as reduction in viral replication by visual analysis; type: toxicity, cell-based; settings: read-out: Ratio CC50/EC50
[24] = as §3, with “Vero 76” for “Vero”, “La Crosse virus” for “JUNV”; type: toxicity, cell-based; settings: read-out: Ratio CC50/EC50
[25] = as §3, with “Vero E6” for “Vero”, “Oropouche virus” for “JUNV”; type: toxicity, cell-based, Vero C1008; settings: read-out: Ratio CC50/EC50
[26] = as §3, with “Pichinde virus” for “JUNV”; type: toxicity, cell-based; settings: read-out: Ratio CC50/EC50
[27] = as §3, with “Pichinde virus” for “JUNV”, “neutral red dye based” for “visual”; type: toxicity; settings: read-out: Ratio CC50/EC50
[28] = as §3, with “Vero 76” for “Vero”, “Punta Toro virus” for “JUNV”, “neutral red dye based” for “visual”; type: toxicity; settings: read-out: Ratio CC50/EC50
[29] = as §2, with “E6” for “76”, “Severe” for “Rift Valley”, “fever with thrombocytopenia syndrome” for “fever”, “replication” for “yield”; type: toxicity, cell-based, Vero C1008
[30] = as §3, with “Tacaribe virus” for “JUNV”; type: toxicity, cell-based; settings: read-out: Ratio CC50/EC50
[31] = as §3, with “Tacaribe virus” for “JUNV”, “neutral red dye based” for “visual”; type: toxicity; settings: read-out: Ratio CC50/EC50
[32] = Toxicity in BALB/c mouse infected with influenza A/Ca/04/09 (H1N1) assessed as mortality at 30 mg/kg, ip measured every day for 6 days; type: organism-based; settings: in vivo, time 6 day, read-out: Activity
Sudan ebolavirus = test: Antiviral activity against SUDV infected in human HeLa cells assessed as reduction in viral cytopathic effect; type: functional, organism-based
Influenza B virus [33] = test: Antiviral activity against Influenza B virus infected in dog MDCK cells assessed as reduction in viral cytopathic effect; type: functional, organism-based
[34] = Cytotoxicity against African green monkey Vero cells infected with DENV-2 assessed as reduction in cell viability by visual assay; type: toxicity, cell-based; settings: chlorocebus sabaeus
[35] = system: Middle East respiratory syndrome-related coronavirus; test: Antiviral activity against MERS-CoV infected in vervet monkey MA-104 cells assessed as reduction in virus-induced cytopathic effect measured after 15 to 30 mins by visual analysis; type: functional, organism-based; settings: MA104
[36] = Cytotoxicity against vervet monkey MA-104 cells infected with MERS-CoV assessed as reduction in cell viability by visual assay; type: toxicity, cell-based; settings: cercopithecus pygerythrus
[37] = as §1, with “vervet monkey MA-104” for “dog MDCK”, “MERS-CoV” for “Influenza A virus H1N1”, “reduction in virus-induced cytopathic effect” for “inhibition of viral replication”; type: toxicity; settings: read-out: Ratio CC50/EC50

`Nc1ncnn2c([C@@H]3N[C@H](CO)[C@@H](O)[C@H]3O)ccc12` showed an EC50 (Influenza A virus [1]) of 320 nM, an EC50 (Influenza A virus [2]) of 310 nM and a CC50 [3] of 14000 nM. For the same compound, the selectivity ratio [4] was 44, the selectivity ratio [5] was 38 and the selectivity ratio [6] was 44. It also gave an EC90 (Influenza A virus [7]) of 250 nM, an EC90 (Influenza B virus [8]) of 300 nM and an EC50 (Junin virus [9]) of 540 nM. The EC50 (Junin virus [10]) was 280 nM, the EC50 (La Crosse virus) was < 100 nM and the EC50 (Oropouche virus) was 200 nM. For the same compound, the EC50 (Punta Toro virus [11]) was 270 nM, the EC50 (Punta Toro virus [12]) was 320 nM and the EC50 (Tacaribe virus) was 370 nM. For the same compound, the EC90 [13] was 860 nM, the CC50 [14] was 13000 nM and the CC50 [15] was 24000 nM. It also gave a CC50 [16] of 13000 nM, a CC50 [17] of 15000 nM and a CC50 [18] of 16000 nM. It also gave a CC50 [19] of 8400 nM, a CC50 [20] of 13000 nM and a CC50 [21] of 12000 nM. The selectivity ratio [22] was 78, the selectivity ratio [23] was 22 and the selectivity ratio [24] was > 240. For the same compound, the selectivity ratio [25] was 62, the selectivity ratio [26] was 42 and the selectivity ratio [27] was 28. The selectivity ratio [28] was 37, the selectivity ratio [29] was 49 and the selectivity ratio [30] was 32. The selectivity ratio [31] was 20 and the mortality at 144 h [32] was 15%.

With `Nc1ncnc2c([C@@H]3N[C@H](CO)[C@@H](O)[C@H]3O)c[nH]c12` [GALIDESIVIR] the EC50 (Sudan ebolavirus) was 3000 nM, the EC50 (Influenza B virus [33]) was 1000 nM and the CC50 [34] was > 100000 nM. The EC50 [35] was 32000 nM, the CC50 [36] was > 100000 nM and the selectivity ratio [37] was > 3.1.
